Experimental data from ChEMBL document CHEMBL1149341, “Two novel immunosuppressive pregnane glycosides from the roots of Stephanotis mucronata” (Bioorg Med Chem Lett, 2006).

Tests used:
Splenocyte [1] = test: Inhibition of concanavalin A-stimulated mouse splenocyte proliferation by MTT method; type: functional, cell-based
Splenocyte [2] = test: Inhibition of LPS-stimulated mouse splenocyte proliferation by MTT method; type: functional, cell-based

| Compound | Activity (Splenocyte [1]) | Activity (Splenocyte [2]) |
| --- | --- | --- |
| CO[C@H]1[C@@H](O)[C@H](O[C@H]2[C@@H](OC)C[C@H](O[C@H]3[C@@H](OC)C[C@H](O[C@H]4CC[C@@]5(C)C(=CC[C@]6(O)C5C[C@@H](OC(=O)c5cccnc5)[C@@]5(C)[C@]6(O)CC[C@@]5(O)[C@@H](C)OC(=O)/C=C/c5ccccc5)C4)O[C@@H]3C)O[C@@H]2C)O[C@H](C)[C@H]1O[C@@H]1O[C@H](CO)[C@@H](O)[C@H](O)[C@H]1O (some centres undefined) | Dose-dependent effect | Dose-dependent effect |
| CNc1ccccc1C(=O)O[C@H](C)[C@]1(O)CC[C@@]2(O)[C@]1(C)[C@H](OC(C)=O)C[C@@H]1[C@@]3(C)CC[C@H](O[C@H]4C[C@H](OC)[C@H](OC5C[C@H](OC)[C@H](O[C@@H]6O[C@H](C)[C@@H](O[C@@H]7O[C@H](CO)[C@@H](O)[C@H](O)[C@H]7O)[C@@H](OC)[C@H]6O)[C@@H](C)O5)[C@@H](C)O4)C[C@@H]3CC[C@]12O (some centres undefined) | Dose-dependent effect | Dose-dependent effect |
